Several values for one entry are separate records, joined by “and”; a condition that tells them apart may be missing. Equal values may be shown once. Marks after values point to notes of the source that are not given here.
Experiments:
[1] = tested on: human liver mitochondrial fraction; assay: Intrinsic clearance and half-life in human liver mitochondrial fraction; format: in vitro ADME; settings: 0.5 mg/mL human liver mitochondrial fraction, 1 μM test compounds; for Half-life (min) Mean / Half-life (min) R3 / Half-life (min) R4: 5 μM controls; for Half-life (min) Mean: mean of replicates; for Half-life (min) R3: replicate 3; for Half-life (min) R4: replicate 4; for Half-life (min) R1: 5 μM Serotonin and Benzylamine controls, replicate 1
Source text: (§1) Use of Liver Mitochondrial Fraction to Model Human Metabolism of Deuterated DMT

[2] = Plasma IAA metabolite levels after oral dosing in rats; settings: for Mean IAA Cmax: rat plasma IAA (semi quantified) after 25 mg/kg PO of the compound; for Mean IAA tmax: rat plasma IAA after 25 mg/kg PO of the compound; for Estimated IAA Concentration / Estimated IAA Concentration, Mean: rat plasma, PO Dose (25 mg/kg); for Estimated IAA Concentration: individual animal; for Estimated IAA Concentration, Mean: mean of animals; for IAA biosynthesis compared to SPL026: rat, PO dosing
[3] = Plasma pharmacokinetics of test compound after oral dosing in rats; settings: for mean Cmax / Determined Concentration of test compound in plasma / Determined Concentration of test compound in plasma, Mean: rat plasma; for mean Cmax: 25 mg/kg single oral gavage; for Determined Concentration of test compound in plasma / Determined Concentration of test compound in plasma, Mean: oral dosing; for Determined Concentration of test compound in plasma: individual animal; for Determined Concentration of test compound in plasma, Mean: mean of 3 animals; for systemic exposure compared to SPL026: rat, oral (PO) dosing
[4] = Intrinsic clearance and half-life in human liver mitochondrial fraction; format: in vitro ADME; settings: 0.5 mg/mL human liver mitochondrial fraction; 1 μM test compounds, 5 μM controls; mean of replicates
Source text: as §1

[5] = tested on: Human (mixed gender) hepatocytes; assay: In vitro intrinsic clearance of DMT and deuterated blends in human hepatocytes; format: in vitro ADME
Procedure: Use of Human Hepatocytes to Assess the In Vitro Intrinsic Clearance of Deuterated DMT Analogue Blends Relative to DMT
To use human hepatocytes to assess the in vitro intrinsic clearance of deuterated DMT analogue blends relative to DMT.
Test compounds were mixed with the hepatocyte suspension within a 96-well plate and incubated for up to 60 minutes at 37° C. The suspension was continuously agitated. At 7 time points, small aliquots were withdrawn, and the test compound/blend concentration therein was measured by LC-MS/MS.
Intrinsic clearance and half-life values were calculated for DMT and the 6 deuterated mixtures described above.

[6] = 10 min, fumarate salt, 25 mg/kg
[7] = 15 min, fumarate salt, 25 mg/kg
[8] = 30 min, fumarate salt, 25 mg/kg
[9] = 45 min, fumarate salt, 25 mg/kg
[10] = 60 min, fumarate salt, 25 mg/kg
[11] = 120 min, fumarate salt, 25 mg/kg
[12] = 180 min, fumarate salt, 25 mg/kg

For `[2H]C([2H])([2H])N(CCc1c[nH]c2ccccc12)C([2H])([2H])[2H]` [SPL028vii], the “Half-life (min) Mean” value [1] was 10.2 min, the “Half-life (min) R3” value [1] was 9.4 min and the “Half-life (min) R4” value [1] was 10.9 min.

In the case of `O=C(O)/C=C/C(=O)O.[2H]C([2H])([2H])N(C([2H])([2H])[2H])C([2H])([2H])Cc1c[nH]c2ccccc12` [SPL028viii, (96.7%) α,α,-dideutero-N,N-bis-trideutero-dimethyltryptamine fumarate salt], the “Mean IAA Cmax” value [2] is reported as 0.827 ng/mL, the “Mean IAA tmax” value [2] is reported as 60 min and the “Estimated IAA Concentration” value ([2]; 1 min) is reported as “BLQ”. For the same compound, the “Estimated IAA Concentration, Mean” value ([2]; 1 min) was “BLQ”, the “Estimated IAA Concentration” value ([2]; 5 min, fumarate salt, 25 mg/kg) was “BLQ (2×) and 0.223 ng/mL” and the “Estimated IAA Concentration, Mean” value ([2]; 5 min) was <0.281 ng/mL. The “Estimated IAA Concentration” value [2, 6] was “BLQ (2×) and 0.430 ng/mL”, the “Estimated IAA Concentration, Mean” value ([2]; 10 min) was <0.350 ng/mL and the “Estimated IAA Concentration” value [2, 7] was “BLQ (2×) and 0.846 ng/mL”. The “Estimated IAA Concentration, Mean” value ([2]; 15 min) was <0.489 ng/mL, the “Estimated IAA Concentration” value [2, 8] was “BLQ (2×) and 1.04 ng/mL” and the “Estimated IAA Concentration, Mean” value ([2]; 30 min) was <0.544 ng/mL. For the same compound, the “Estimated IAA Concentration” value [2, 9] was 0.347 ng/mL and 0.821 ng/mL and 1.0 ng/mL, the “Estimated IAA Concentration, Mean” value ([2]; 45 min) was 0.733 ng/mL and the “Estimated IAA Concentration” value [2, 10] was “BLQ and 0.772 ng/mL and 0.883 ng/mL”. For the same compound, the “Estimated IAA Concentration, Mean” value ([2]; 60 min) was 0.827 ng/mL, the “Estimated IAA Concentration” value [2, 11] was “BLQ and 0.516 ng/mL and 0.747 ng/mL” and the “Estimated IAA Concentration, Mean” value ([2]; 120 min) was 0.631 ng/mL. For the same compound, the “Estimated IAA Concentration” value [2, 12] was “BLQ and 0.747 ng/mL and 0.673 ng/mL”, the “Estimated IAA Concentration, Mean” value ([2]; 180 min) was 0.710 ng/mL and the “Estimated IAA Concentration” value ([2]; Predose) was “BLQ”. For the same compound, the “Estimated IAA Concentration, Mean” value ([2]; Predose) was “BLQ”, the “IAA biosynthesis compared to SPL026” value [2] was “significant decrease” and the “Half-life (min) R3” value [1] was 92.9 min. For the same compound, the “Half-life (min) R4” value [1] was 131.5† min, the “mean Cmax” value [3] was 40.77 ng/mL and the “Determined Concentration of test compound in plasma” value ([3]; 1 min, fumarate salt) was 19.8 ng/mL and BLQ (Below the lower limit of quantification 0.310 ng/mL) (2×). The “Determined Concentration of test compound in plasma, Mean” value (“Determined Concentration … Mean” below) ([3]; 1 min) was <6.8 ng/mL, the “Determined Concentration of test compound in plasma” value ([3]; 5 min, fumarate salt) was 14.9 ng/mL and 3.11 ng/mL and 0.506 ng/mL and the “Determined Concentration … Mean” value ([3]; 5 min) was 6.2 ng/mL. The “Determined Concentration of test compound in plasma” value ([3]; 10 min, fumarate salt) was 18.0 ng/mL and 13.7 ng/mL and 11.8 ng/mL, the “Determined Concentration … Mean” value ([3]; 10 min) was 14.5 ng/mL and the “Determined Concentration of test compound in plasma” value ([3]; 15 min, fumarate salt) was 20.5 ng/mL and 20.3 ng/mL and 36.2 ng/mL. The “Determined Concentration … Mean” value ([3]; 15 min) was 25.7 ng/mL, the “Determined Concentration of test compound in plasma” value ([3]; 30 min, fumarate salt) was 9.08 ng/mL and 23.0 ng/mL and 35.7 ng/mL and the “Determined Concentration … Mean” value ([3]; 30 min) was 22.6 ng/mL. For the same compound, the “Determined Concentration of test compound in plasma” value ([3]; 45 min, fumarate salt) was 5.90 ng/mL and 21.7 ng/mL and 40.0 ng/mL, the “Determined Concentration … Mean” value ([3]; 45 min) was 22.5 ng/mL and the “Determined Concentration of test compound in plasma” value ([3]; 60 min, fumarate salt) was 4.43 ng/mL and 30.5 ng/mL and 62.0 ng/mL. For the same compound, the “Determined Concentration … Mean” value ([3]; 60 min) was 32.3 ng/mL, the “Determined Concentration of test compound in plasma” value ([3]; 120 min, fumarate salt) was 13.5 ng/mL and 31.6 ng/mL and 63.8 ng/mL and the “Determined Concentration … Mean” value ([3]; 120 min) was 36.3 ng/mL. For the same compound, the “Determined Concentration of test compound in plasma” value ([3]; Predose) was “BLQ (Below the lower limit of quantification 0.310 ng/mL)”, the “Determined Concentration … Mean” value ([3]; Predose) was “BLQ (Below the lower limit of quantification 0.310 ng/mL)” and the “systemic exposure compared to SPL026” value [3] was “increased systemic exposure”.

With `NCCc1c[nH]c2ccc(O)cc12` [Serotonin, reference compound] the half-life at 5 μM [4] was 9 min, the “Half-life (min) R1” value [1] was 9.3 min and the “Half-life (min) R3” value [1] was 9.1 min. The “Half-life (min) R4” value [1] was 8.5 min.

With `O=C(O)/C=C/C(=O)O.[2H]C([2H])(Cc1c[nH]c2ccccc12)N(C)C` [SPL028i, (96.6%) α,α,-dideutero-N,N-dimethyltryptamine fumarate salt] the “Mean IAA Cmax” value ([2]; fumarate salt) was 2.933 ng/mL and 2.993 ng/mL, the “Mean IAA tmax” value [2] was 45 min and the “Estimated IAA Concentration” value ([2]; 1 min) was “BLQ”. For the same compound, the “Estimated IAA Concentration, Mean” value ([2]; 1 min) was “BLQ”, the “Estimated IAA Concentration” value ([2]; 5 min, fumarate salt, 25 mg/kg) was 0.523 ng/mL and 0.874 ng/mL and 0.503 ng/mL and the “Estimated IAA Concentration, Mean” value ([2]; 5 min) was 0.633 ng/mL. The “Estimated IAA Concentration” value [2, 6] was 1.24 ng/mL and 1.84 ng/mL and 1.34 ng/mL, the “Estimated IAA Concentration, Mean” value ([2]; 10 min) was 1.473 ng/mL and the “Estimated IAA Concentration” value [2, 7] was 2.41 ng/mL and 0.749 ng/mL and 1.97 ng/mL. For the same compound, the “Estimated IAA Concentration, Mean” value ([2]; 15 min) was 1.709 ng/mL, the “Estimated IAA Concentration” value [2, 8] was 3.53 ng/mL and 2.10 ng/mL and 2.18 ng/mL and the “Estimated IAA Concentration, Mean” value ([2]; 30 min) was 2.606 ng/mL. For the same compound, the “Estimated IAA Concentration” value [2, 9] was 4.67 ng/mL and 1.95 ng/mL and 2.35 ng/mL, the “Estimated IAA Concentration, Mean” value ([2]; 45 min) was 2.993 ng/mL and the “Estimated IAA Concentration” value [2, 10] was 2.78 ng/mL and 1.59 ng/mL and 1.50 ng/mL. For the same compound, the “Estimated IAA Concentration, Mean” value ([2]; 60 min) was 1.955 ng/mL, the “Estimated IAA Concentration” value [2, 11] was 2.94 ng/mL and 1.42 ng/mL and 1.81 ng/mL and the “Estimated IAA Concentration, Mean” value ([2]; 120 min) was 2.055 ng/mL. The “Estimated IAA Concentration” value [2, 12] was 2.09 ng/mL and 0.898 ng/mL and 1.45 ng/mL, the “Estimated IAA Concentration, Mean” value ([2]; 180 min) was 1.480 ng/mL and the “Estimated IAA Concentration” value ([2]; Predose) was “BLQ”. The “Estimated IAA Concentration, Mean” value ([2]; Predose) was “BLQ”, the “IAA biosynthesis compared to SPL026” value [2] was “significant decrease” and the “Half-life (min) R1” value [1] was 86.1 min. The “Half-life (min) Mean” value [1] was 85.0 min, the “Half-life (min) R3” value [1] was 82.6 min and the “Half-life (min) R4” value [1] was 72.1 min. The “half-life compared to undeuterated-DMT” value [5] was “nearly doubling”, the “intrinsic clearance rate compared to undeuterated-DMT” value [5] was “almost halved” and the “mean Cmax” value [3] was 54.3 ng/mL. The “Determined Concentration of test compound in plasma” value ([3]; 1 min) was “BLQ (Below the lower limit of quantification 0.310 ng/mL)”, the “Determined Concentration … Mean” value ([3]; 1 min) was “BLQ (Below the lower limit of quantification 0.310 ng/mL)” and the “Determined Concentration of test compound in plasma” value ([3]; 5 min, fumarate salt) was 0.865 ng/mL and 5.85 ng/mL and 0.688 ng/mL. The “Determined Concentration … Mean” value ([3]; 5 min) was 2.5 ng/mL, the “Determined Concentration of test compound in plasma” value ([3]; 10 min, fumarate salt) was 2.42 ng/mL and 49.2 ng/mL and 6.72 ng/mL and the “Determined Concentration … Mean” value ([3]; 10 min) was 19.4 ng/mL. The “Determined Concentration of test compound in plasma” value ([3]; 15 min, fumarate salt) was 7.46 ng/mL and 34.3 ng/mL and 19.0 ng/mL, the “Determined Concentration … Mean” value ([3]; 15 min) was 20.3 ng/mL and the “Determined Concentration of test compound in plasma” value ([3]; 30 min, fumarate salt) was 22.6 ng/mL (2×) and 46.4 ng/mL. The “Determined Concentration … Mean” value ([3]; 30 min) was 30.5 ng/mL, the “Determined Concentration of test compound in plasma” value ([3]; 45 min, fumarate salt) was 22.6 ng/mL and 33.1 ng/mL and 43.7 ng/mL and the “Determined Concentration … Mean” value ([3]; 45 min) was 33.1 ng/mL. The “Determined Concentration of test compound in plasma” value ([3]; 60 min, fumarate salt) was 30.5 ng/mL and 32.1 ng/mL and 53.1 ng/mL, the “Determined Concentration … Mean” value ([3]; 60 min) was 38.6 ng/mL and the “Determined Concentration of test compound in plasma” value ([3]; 120 min, fumarate salt) was 38.0 ng/mL and 18.7 ng/mL and 49.3 ng/mL. For the same compound, the “Determined Concentration … Mean” value ([3]; 120 min) was 35.3 ng/mL, the “Determined Concentration of test compound in plasma” value ([3]; Predose) was “BLQ (Below the lower limit of quantification 0.310 ng/mL)” and the “Determined Concentration … Mean” value ([3]; Predose) was “BLQ (Below the lower limit of quantification 0.310 ng/mL)”. The “systemic exposure compared to SPL026” value [3] was “increased systemic exposure”.

From US12042564B2, “Therapeutic solid dosage forms” (CYBIN UK LTD, priority 2020, dated 2024)
